Measurements from patent US5631230A, “Receptor selective analogues of cholecystokinin-8” (priority 1994, dated 1997).
Non-standard residues stand in square brackets, D forms with d. Residues, ends and D or L forms follow the SMILES beside them. *: point of attachment. sY = N[C@@H](Cc1ccc(OS(=O)(=O)O)cc1)C(=O)O; X1 = O=C(O)C[C@H](NS(=O)(=O)O)C(=O)*; NMeNle = CCCC[C@H](NC)C(=O)O; Nle = CCCC[C@H](N)C(=O)O

Key:
[1] = target: T1, [^125 I] CCK-8 binding sites (CCK receptor), Rat Pancreas (Rattus norvegicus, UniProt P30551); test: Inhibition of [125I] CCK-8 binding, rat pancreas
T1 construct: from tissue; host or cells: rat pancreas
T1 sequence (P30551 1-444): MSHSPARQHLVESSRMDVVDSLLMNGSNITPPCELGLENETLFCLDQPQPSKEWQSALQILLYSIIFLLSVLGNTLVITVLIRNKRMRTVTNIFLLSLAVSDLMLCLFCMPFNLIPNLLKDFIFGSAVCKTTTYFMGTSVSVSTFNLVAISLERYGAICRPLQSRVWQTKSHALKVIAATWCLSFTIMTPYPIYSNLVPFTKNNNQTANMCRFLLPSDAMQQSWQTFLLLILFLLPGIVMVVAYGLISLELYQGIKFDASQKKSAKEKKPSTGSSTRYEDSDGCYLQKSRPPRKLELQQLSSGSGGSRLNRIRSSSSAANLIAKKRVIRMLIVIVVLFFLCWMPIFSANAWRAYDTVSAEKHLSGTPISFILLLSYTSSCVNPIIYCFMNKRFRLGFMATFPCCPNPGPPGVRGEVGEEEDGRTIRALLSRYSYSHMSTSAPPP

[2] = target: T2, [^125 I] CCK-8 binding sites (CCK receptor), Rat Brain (Rattus norvegicus, UniProt P30553); test: Inhibition of [125I] CCK-8 binding, rat brain; details: for Ratio Pancreas/Brain Rat: IC50 pancreas / IC50 brain
T2 construct: from tissue; host or cells: rat brain
T2 sequence (P30553 1-452): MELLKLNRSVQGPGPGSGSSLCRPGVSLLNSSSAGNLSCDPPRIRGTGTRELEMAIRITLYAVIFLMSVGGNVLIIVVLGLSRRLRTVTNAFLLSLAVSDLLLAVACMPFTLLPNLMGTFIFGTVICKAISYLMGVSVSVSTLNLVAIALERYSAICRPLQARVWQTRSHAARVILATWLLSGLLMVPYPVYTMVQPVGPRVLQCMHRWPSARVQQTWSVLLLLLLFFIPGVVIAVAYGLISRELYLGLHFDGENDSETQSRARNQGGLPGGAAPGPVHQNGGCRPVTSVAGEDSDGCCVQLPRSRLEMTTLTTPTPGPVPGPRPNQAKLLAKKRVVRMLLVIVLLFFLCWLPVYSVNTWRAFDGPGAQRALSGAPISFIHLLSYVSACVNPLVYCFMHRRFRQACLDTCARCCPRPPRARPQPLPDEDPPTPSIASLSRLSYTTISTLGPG

[3] = target: T3, [^125 I] CCK-8 binding sites (CCK receptor), Guinea Pig Pancreas (Cavia porcellus, UniProt Q63931); test: Inhibition of [125I] CCK-8 binding, guinea pig pancreas; details: read-out: Guinea Pig Pancreas IV50
T3 construct: from tissue; host or cells: guinea pig pancreas
T3 sequence (Q63931 1-430): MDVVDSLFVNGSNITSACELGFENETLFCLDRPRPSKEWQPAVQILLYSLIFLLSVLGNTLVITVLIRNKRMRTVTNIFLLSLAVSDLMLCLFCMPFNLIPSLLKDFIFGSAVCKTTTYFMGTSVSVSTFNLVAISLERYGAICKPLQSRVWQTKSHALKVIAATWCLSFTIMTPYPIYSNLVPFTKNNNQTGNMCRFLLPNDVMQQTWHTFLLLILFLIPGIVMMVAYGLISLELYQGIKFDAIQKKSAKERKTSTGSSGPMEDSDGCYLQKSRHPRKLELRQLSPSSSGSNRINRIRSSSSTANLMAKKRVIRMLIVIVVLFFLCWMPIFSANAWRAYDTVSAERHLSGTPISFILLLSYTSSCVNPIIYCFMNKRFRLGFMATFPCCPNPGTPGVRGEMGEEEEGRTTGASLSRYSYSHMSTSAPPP

[4] = tested on: [^125 I] CCK-8 binding sites (CCK receptor), Guinea Pig Brain; test: Inhibition of [125I] CCK-8 binding, guinea pig brain; details: for Ratio Pancreas/Brain (Guinea Pig): value in brackets, IC50 pancreas / IC50 brain; for IC50: inhibition of [125I] CCK-8 binding, guinea pig brain

IC50 [1] [nM] | IC50 [2] [nM] | IC50 [3] [µM] | Ratio Pancreas/Brain Rat [2] | Ratio Pancreas/Brain (Guinea Pig) [4] | IC50 [4] [nM] | Structure (SMILES)
1030 | 0.131 | 0.958 | 7,863 | 4146 | 0.23 | CCCC[C@@H](C(=O)N[C@@H](CC(=O)O)C(=O)N[C@@H](Cc1ccccc1)C(N)=O)N(C)C(=O)[C@H](Cc1c[nH]c2ccccc12)NC(=O)CNC(=O)[C@H](CCCC)N(C)C(=O)[C@H](Cc1ccc(O)cc1)NC(=O)[C@@H](N)CC(=O)O [Compound 2, H-Asp-Tyr-N-MeNle-Gly-Trp-N-MeNle-Asp-Phe-NH2]
0.46 | 1.41 |  | 0.29 |  |  | CCCC[C@@H](C(=O)N[C@@H](CC(=O)O)C(=O)N[C@@H](Cc1ccccc1)C(N)=O)N(C)C(=O)[C@H](Cc1c[nH]c2ccccc12)NC(=O)CNC(=O)[C@H](CCCC)N(C)C(=O)[C@H](Cc1ccc(OS(=O)(=O)O)cc1)NC(=O)[C@H](CC(=O)O)NS(=O)(=O)O [Compound 3, H-Asp-Tyr-N-MeNle-Gly-Trp-N-MeNle-Asp-Phe-NH2 Bis-SO3^θ] (X1-[sY][NMeNle]GW[NMeNle]DF-NH2; N-terminus assumed)
46.7 | 1.45 |  | 32.2 |  |  | CCCC[C@H](NC(=O)[C@H](Cc1c[nH]c2ccccc12)NC(=O)CNC(=O)[C@H](CCCC)N(C)C(=O)[C@H](Cc1ccc(O)cc1)NC(=O)[C@@H](N)CC(=O)O)C(=O)N[C@@H](CC(=O)O)C(=O)N[C@@H](Cc1ccccc1)C(N)=O [Compound 4, H-Asp-Tyr-N-MeNle-Gly-Trp-Nle-Asp-Phe-NH2]
170 | 976 |  | 0.17 |  |  | CCCC[C@H](NC(=O)[C@H](Cc1ccc(O)cc1)NC(=O)[C@@H](N)CC(=O)O)C(=O)NCC(=O)N[C@@H](Cc1c[nH]c2ccccc12)C(=O)N(C)[C@@H](CCCC)C(=O)N[C@@H](CC(=O)O)C(=O)N[C@@H](Cc1ccccc1)C(N)=O [Compound 5, H-Asp-Tyr-Nle-Gly-Trp-N-MeNle-AsP-Phe-NH2]
10.6 | 0.318 |  | 33.5 |  |  | CCCC[C@H](NC(=O)[C@H](Cc1c[nH]c2ccccc12)NC(=O)CNC(=O)[C@@H](NC(=O)[C@H](Cc1ccc(O)cc1)NC(=O)[C@@H](N)CC(=O)O)C(C)C)C(=O)N[C@@H](CC(=O)O)C(=O)N[C@@H](Cc1ccccc1)C(N)=O [Compound 6, H-Asp-Tyr-Val-Gly-Trp-Nle-Asp-Phe-NH2]
521 | 1.26 |  | 413 |  |  | CCCC[C@H](NC(=O)[C@H](Cc1c[nH]c2ccccc12)NC(=O)CNC(=O)[C@H](NC(=O)[C@H](Cc1ccc(O)cc1)NC(=O)[C@@H](N)CC(=O)O)C(C)C)C(=O)N[C@@H](CC(=O)O)C(=O)N[C@@H](Cc1ccccc1)C(N)=O [Compound 7, H-Asp-Tyr-D-Val-Gly-Trp-Nle-Asp-Phe-NH2]
0.975 | 9.7 |  | 0.0010 |  |  | CCCC[C@H](NC(=O)[C@H](Cc1ccc(O)c(O)c1)NC(=O)[C@@H](N)CC(=O)O)C(=O)NCC(=O)N[C@@H](Cc1c[nH]c2ccccc12)C(=O)N[C@@H](CCCC)C(=O)N[C@@H](CC(=O)O)C(=O)N[C@@H](Cc1ccccc1)C(N)=O [Compound 8, H-Asp-Dopa-Nle-Gly-Trp-Nle-Asp-Phe-NH2]
 |  | 29.1 |  | 9099 | 3.19 | CCCC[C@H](NC(=O)[C@H](Cc1c[nH]c2ccccc12)NC(=O)CNC(=O)[C@H](CCCC)N(C)C(=O)[C@H](Cc1ccc(OS(=O)(=O)O)cc1)NC(=O)[C@H](CC(=O)O)NS(=O)(=O)O)C(=O)N[C@@H](CC(=O)O)C(=O)N[C@@H](Cc1ccccc1)C(N)=O [Compound 9, H-Asp-Tyr-N-MeNle-Gly-Trp-Nle-Asp-Phe-NH2 Bis-SO3 θ] (X1-[sY][NMeNle]GW[Nle]DF-NH2; N-terminus assumed)
1.39 | 0.496 |  | 2.81 |  |  | CCCC[C@H](NC(=O)[C@H](Cc1ccc(OS(=O)(=O)O)cc1)NC(=O)[C@H](CC(=O)O)NS(=O)(=O)O)C(=O)NCC(=O)N[C@@H](Cc1c[nH]c2ccccc12)C(=O)N(C)[C@@H](CCCC)C(=O)N[C@@H](CC(=O)O)C(=O)N[C@@H](Cc1ccccc1)C(N)=O [Compound 10, H-Asp-Tyr-Nle-Gly-Trp-N-MeNle-Asp-Phe-NH2 -Bis-SO3θ] (X1-[sY][Nle]GW[NMeNle]DF-NH2; N-terminus assumed)
 |  |  | 33.46 |  |  | CCCC[C@H](NC(=O)[C@H](Cc1c[nH]c2ccccc12)NC(=O)CNC(=O)[C@@H](NC(=O)[C@H](Cc1ccc(OS(=O)(=O)O)cc1)NC(=O)[C@H](CC(=O)O)NS(=O)(=O)O)C(C)C)C(=O)N[C@@H](CC(=O)O)C(=O)N[C@@H](Cc1ccccc1)C(N)=O [Compound 11, H-Asp-Tyr-Val-Gly-Trp-Nle-Asp-Phe-NH2 Bis-SO3 θ] (X1-[sY]VGW[Nle]DF-NH2; N-terminus and C-terminus assumed)
 |  |  | 39.5 |  |  | CCCC[C@H](NC(=O)[C@H](Cc1c[nH]c2ccccc12)NC(=O)CNC(=O)[C@H](NC(=O)[C@H](Cc1ccc(OS(=O)(=O)O)cc1)NC(=O)[C@H](CC(=O)O)NS(=O)(=O)O)C(C)C)C(=O)N[C@@H](CC(=O)O)C(=O)N[C@@H](Cc1ccccc1)C(N)=O [Compound 12, H-Asp-Tyr-D-Val-Gly-Trp-Nle-Asp-Phe-NH2 Bis-SO3 θ] (X1-[sY][dV]GW[Nle]DF-NH2; N-terminus and C-terminus assumed)

Structure (SMILES) | IC50 [1] [nM] | IC50 [2] [nM] | IC50 [3] [µM] | Ratio Pancreas/Brain Rat [2] | Ratio Pancreas/Brain (Guinea Pig) [4] | IC50 [4] [nM]
CSCC[C@H](NC(=O)[C@H](Cc1ccc(OS(=O)(=O)O)cc1)NC(=O)[C@@H](N)CC(=O)O)C(=O)NCC(=O)N[C@@H](Cc1c[nH]c2ccccc12)C(=O)N[C@@H](CCSC)C(=O)N[C@@H](CC(=O)O)C(=O)N[C@@H](Cc1ccccc1)C(N)=O [CCK-8, Asp-Tyr-(SO3^-)-Met-Gly-Trp-Met-Asp-Phe-NH2, reference compound] | 0.129 |  |  |  |  | 
CCCC[C@@H](C(=O)N[C@@H](CC(=O)O)C(=O)N[C@@H](Cc1ccccc1)C(N)=O)N(C)C(=O)[C@H](Cc1c[nH]c2ccccc12)NC(=O)CN [Compound 1, H-Gly-Trp-N-MeNle-Asp-Phe-NH2] (H-GW[NMeNle]DF-NH2) | > 10000 | 4.67 | 8 |  |  | 
